# Results published in patent US20250263436A1, “BROAD-SPECTRUM ANTIVIRAL DRUG FOR ENTEROVIRUS, AND APPLICATION” (WUHAN INSTITUTE OF VIROLOGY, CHINESE ACADEMY OF SCIENCES, priority 2020, published 2025).
# “And” between values parts separate entries of the source, which are not always exact repeats. Equal entries are not always repeated.
# Key:
# EV71 [1] = assay: Inhibition of EV71 in Vero cells (viral RNA, qRT-PCR); type: cell-based, enterovirus 71 (EV71); settings: for Percentage of viral RNA in Vero cells (%): EV71, 24 h after infection
# Procedure: (1) Different cells were plated in a 24-well plate.
# (2) When the cells grew to a confluence of 70%-80%, the DMEM medium containing 10% serum was replaced with a DMEM medium containing 2% serum (the DMEM medium containing 2% serum was added in each well at an amount of 0.5 mL), and 5 μL of EV71 virus of 1×10^6 PFU/mL was added to each well.
# (3) After 1 h, different polypeptides (RQ or control TAT) with final concentrations of 0.3125 μM, 0.625 μM, 1.25 μM, 2.5 μM, and 5 μM were added respectively. The group without polypeptide added was used as a control.
# (4) The samples were collected 24 h after the infection of EV71 virus, and RNA was extracted with the total RNA extraction kit.
# (5) The supernatant was discarded, then 350 μL of TRK lysate was added to each well, and the plate was put on a shaker for 5 min.
# (6) 350 μL of 70% ethanol (DEPC) was added to each well, and then the plate was put on a shaker for 5 min.
# (7) The solution in each well was transferred to a RNA extraction column for 1 min of centrifugation at 12000 g.
# (8) The solution obtained in the recovery tube was reloaded on the column again for 1 min of centrifugation at 12000 g.
# (9) RNA washing buffer 1 was added in the column for 30 s of centrifugation at 12000 g.
# (10) RNA washing buffer 2 was added in the column for 1 min of centrifugation at 12000 g.
# (11) Step (10) was repeated.
# (12) The column alone was centrifuged at 12000 g for 2 min to completely remove the residual RNA washing buffer.
# (13) 50 μL of DEPC water was added to the column for 2 min of centrifugation at 12000 g.
# (14) 2 μL of RNA sample was subjected to a fluorescence quantitative experiment using the one step qRT-PCR kit.
# (1) Vero E6 cells were plated in a 24-well plate.
# (3) After 1 h, different polypeptides (LQ or SQ) with final concentrations of 0.3125 μM, 0.625 μM, 1.25 μM, 2.5 μM, and 5 μM were added respectively. The group without polypeptide added was used as a control.
# EV71 2C protein = target: T1, EV71 2C protein (Human enterovirus 71, UniProt Q66478); assay: Inhibition of helicase activity of EV71 2C protein in vitro (dsRNA unwinding); type: biochemical; settings: MBP-EV71 2C; dsRNA substrate; 37° C. 50 min
# T1 construct: In vitro expression and purification of EV71 2C protein; made in house; host or cells: Sf9 (Spodoptera frugiperda) cells infected with recombinant baculovirus
# T1 sequence (Q66478 1112-1440 limits assumed): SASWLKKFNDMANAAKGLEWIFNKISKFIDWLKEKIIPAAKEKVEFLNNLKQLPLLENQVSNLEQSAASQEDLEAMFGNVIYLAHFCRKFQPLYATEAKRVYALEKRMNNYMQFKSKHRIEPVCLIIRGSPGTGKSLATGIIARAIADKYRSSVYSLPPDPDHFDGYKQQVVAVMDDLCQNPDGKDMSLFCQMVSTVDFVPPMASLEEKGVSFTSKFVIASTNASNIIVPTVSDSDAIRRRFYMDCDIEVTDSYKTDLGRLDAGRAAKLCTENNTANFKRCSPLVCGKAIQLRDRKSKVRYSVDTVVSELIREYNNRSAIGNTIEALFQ
# Procedure: (1) A strand labeled with HEX at a concentration of 0.2 pmol/μL was added with a complementary strand RNA at the same concentration to prepare a HEX-labeled double-stranded dsRNA substrate by annealing.
# (2) Annealing process: the reaction system was kept at 75° C. for 3 min, cooled to 25° C. at a rate of 1° C. per minute, and then kept at 25° C. for 2 min.
# (3) The target protein and the double-stranded substrate were prepared according to the standard unwinding experiment reaction system. 5 μg of polypeptide RQ and control TAT were added respectively, and single and double strands controls were set. The single strand sample was boiled at 75° C. for 3 min and then placed on ice for 2 min.
# (4) The prepared system was mixed well and then placed at 37° C. for 50 min of reaction.
# (5) A mixture obtained after the reaction was subjected to electrophoresis.
# (6) Finally, Typhoon 9500 was used for direct scan to obtain a HEX signal.
# During electrophoresis, the single strand ran faster than the double strand. Therefore, if the MBP-2C protein had helicase activity, it can unwind the double-stranded dsRNA substrate to release a single-stranded RNA, and then the lane would show two bands, upper and lower. The single-stranded RNA (lane 2) prepared by boiling at 75° C. was used as a positive control. The reaction without protein added (lane 1) was used as a negative control.
# EV71 [2] = assay: Inhibitory activity on EV71 in RD cells by CCK8 method; type: cell-based, enterovirus 71 (EV71); settings: for Inhibition rate on EV71 virus (%): RD cells, 0.1 MOI, 24 h, CCK8
# Procedure: (1) RD cells were plated in a 96-well plate at 100 μL per well.
# (2) When the cells grew to a confluence of 70%-80%, the DMEM medium containing 10% serum was replaced with a DMEM medium containing 2% serum.
# (§1) (3) The polypeptide drug was gradiently diluted with the DMEM containing 2% FBS into concentrations of 0.15625 μM, 0.3125 μM, 0.625 μM, 1.25 μM, 2.5 μM, and 5 μM, and then added to a new 96-well plate at 100 μL per well, with 3 replicate wells for each concentration.
# (4) The diluted virus was added to the above wells at 100 μL per well. The wells with no drug and no virus added and the wells with no drug but virus added were set as controls respectively, with a final concentration of virus of 0.1 MOI.
# (4) The mixture was transferred into the 96-well plate plated with cells for another 24 h of culture, and the inhibitory activity of the polypeptide on the virus was determined by a CCK8 kit.
# (5) The inhibition rates of different concentrations of the polypeptides on virus infection were calculated according to a calculation formula of: inhibition rate of polypeptide=(well with drug-well with virus)×100%/(well with no drug-well with virus).
# as §1, with “concentration. (4) The diluted virus was added to the above wells at 100 μL per well. The wells with no drug and no virus added and the wells with no drug but virus added were set as controls respectively, with a final concentration of virus of 0.1 MOI.” for “concentration.”
smiles,measurement,setting,value
"N=C(N)NCCC[C@H](NC(=O)[C@H](CCCNC(=N)N)NC(=O)[C@H](CCCNC(=N)N)NC(=O)[C@H](CCC(N)=O)NC(=O)[C@H](CCCNC(=N)N)NC(=O)[C@H](CCCNC(=N)N)NC(=O)[C@H](CCCCN)NC(=O)[C@H](CCCCN)NC(=O)[C@H](CCCNC(=N)N)NC(=O)CNC(=O)[C@@H](N)Cc1ccc(O)cc1)C(=O)O [TAT, YGRKKRRQRRR]",Percentage of viral RNA in Vero cells (%),EV71 [1]; polypeptide 0.3125 μM,115.6133% and 93.75% and 91.92%
same,Percentage of viral RNA in Vero cells (%),EV71 [1]; polypeptide 0.625 μM,121.4818% and 94.87% and 149.0928%
same,Percentage of viral RNA in Vero cells (%),EV71 [1]; polypeptide 1.25 μM,111.6527% and 97.24% and 100.8214%
same,Percentage of viral RNA in Vero cells (%),EV71 [1]; polypeptide 2.5 μM,125.8799% and 103.6078% and 137.9907%
same,Percentage of viral RNA in Vero cells (%),EV71 [1]; polypeptide 5 μM,136.8661% and 104.0616% and 88.68%
same,anti-EV71 effect,EV71 [1]; Vero cells,no anti-EV71 effect
same,helicase activity of EV71 2C,EV71 2C protein,did not affect the helicase activity of 2C
same,antiviral activity,"EV71 [2]; EV71 in RD cells, CCK8 method",no antiviral activity
same,Inhibition rate on EV71 virus (%),EV71 [2]; polypeptide 0.15625 μM,1.38% and 5.231% and 2.294%
same,Inhibition rate on EV71 virus (%),EV71 [2]; polypeptide 0.3125 μM,2.463% and 5.242% and 6.282%
same,Inhibition rate on EV71 virus (%),EV71 [2]; polypeptide 0.625 μM,8.374% and 2.34% and 7.234%
same,Inhibition rate on EV71 virus (%),EV71 [2]; polypeptide 1.25 μM,8.365% and 3.237% and 6.203%
same,Inhibition rate on EV71 virus (%),EV71 [2]; polypeptide 2.5 μM,7.373% and 4.241% and 8.213%
